Laboratory results from US20250163522A1, “METHODS FOR PRESERVING HEALTHY INTESTINAL MICROBIOME DURING GROWTH PROMOTER ADMINSTRATION” (BIOMEDIT, LLC, priority 2022, published 2025).
Read-outs that look alike come from different tables or passages of the source.

Format: in vivo, chickens (Gallus gallus)
Description: 15 cecal samples and 10 serum samples from day 35 birds were sent to metabolon (Morrisville, NC) for untargeted metabolomics analysis. These numbers of samples were sent for both the control and narasin treatments. Serum samples were selected sequentially, that is, without knowledge of bird performance or results from other analyses.
Samples were prepared using the automated MicroLab STAR® system from Hamilton Company. Samples were extracted with methanol under vigorous shaking for 2 min (Glen Mills GenoGrinder 2000) to precipitate protein and dissociate small molecules bound to protein or trapped in the precipitated protein matrix, followed by centrifugation to recover chemically diverse metabolites. The resulting extract was divided into four fractions: two for analysis by two separate reverse phase (RP)/Ultrahigh Performance Liquid Chromatography-Tandem Mass Spectroscopy (UPLC-MS/MS) methods using positive ion mode electrospray ionization (ESI), one for analysis by RP/UPLC-MS/MS using negative ion mode ESI, and one for analysis by HILIC/UPLC-MS/MS using negative ion mode ESI. Samples were placed briefly on a TurboVap® (Zymark) to remove the organic solvent. The sample extracts were stored overnight under nitrogen before preparation for analysis.
The sample extract was dried and reconstituted in solvents compatible to each of the four methods. One aliquot was analyzed using acidic positive ion conditions, chromatographically optimized for more hydrophilic compounds. In this method, the extract is gradient-eluted from a C18 column (Waters UPLC BEH C18-2.1×100 mm, 1.7 μm) using water and methanol, containing 0.05% perfluoropentanoic acid (PFPA) and 0.1% formic acid (FA). A second aliquot was also analyzed using acidic positive ion conditions but was chromatographically optimized for more hydrophobic compounds. In this method, the extract is gradient eluted from the C18 column using methanol, acetonitrile, water, 0.05% PFPA and 0.01% FA, and is operated at an overall higher organic content. A third aliquot was analyzed using basic negative ion optimized conditions using a separate dedicated C18 column. The basic extracts were gradient-eluted from the column using methanol and water, and with 6.5 mM Ammonium Bicarbonate at pH 8. The fourth aliquot was analyzed via negative ionization following elution from a HILIC column (Waters UPLC BEH Amide 2.1×150 mm, 1.7 μm) using a gradient consisting of water and acetonitrile with 10 mM Ammonium Formate, pH 10.8. The MS analysis alternates between MS and data-dependent MS^n scans using dynamic exclusion. The scan range varies slightly between methods, but covers approximately 70-1000 m/z.
UPLC-MS/MS was done using a Waters ACQUITY ultra-performance liquid chromatography (UPLC) and a Thermo Scientific Q-Exactive high resolution/accurate mass spectrometer interfaced with a heated electrospray ionization (HESI-II) source and Orbitrap mass analyzer operated at 35,000 mass resolution.
Raw data was extracted, peak-identified, and QC processed using Metabolon's hardware and software. Compounds were identified by comparison to library entries of purified standards. The library, based on authenticated standards, contains the retention time/index (RI), mass to charge ratio (m/z), and chromatographic data (including MS/MS spectral data) on all molecules present in the library. Biochemical identifications were based on three criteria: retention index within a narrow RI window of the proposed identification, accurate mass match to the library+/−10 ppm, and the MS/MS forward and reverse scores. MS/MS scores are based on a comparison of the ions present in the experimental spectrum to ions present in the library entry spectrum.
Peaks were quantified as area-under-the-curve (AUC) detector ion counts. For each identified metabolite, AUC values were rescaled by dividing by the median AUC value across all samples. […]

[1] = cecum, day 35, corrected p-value<0.05

With `CC[C@@H](C(=O)O)[C@@H]1O[C@@H]([C@@H](C)[C@H](O)[C@H](C)C(=O)[C@H](CC)[C@H]2O[C@]3(C=C[C@@H](O)[C@]4(CC[C@@](C)([C@H]5CC[C@](O)(CC)[C@H](C)O5)O4)O3)[C@H](C)C[C@@H]2C)[C@@H](C)C[C@@H]1C` [narasin] the spermidine concentration (cecum and serum, day 35) was “lower concentration”, the “amino acid concentrations compared to controls” value (cecum, day 35) was “all 20 amino acids were found at lower concentrations” and the riboflavin concentration (cecum, day 35) was “higher concentration”. The “number of metabolites at higher abundance compared to controls” value [1] was 49, the “number of metabolites at lower abundance compared to controls” value [1] was 78 and the “number of metabolites at higher abundance compared to controls” value (serum, day 35) was 4. For the same compound, the “number of metabolites at lower abundance compared to controls” value (serum, day 35) was 93 and the “urea level compared to controls” value (serum, day 35) was “lower levels”.
